Experimental data published in ChEMBL document CHEMBL1201862, “PubChem BioAssay data set” (2004).
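Method: 48-hour compound exposure of cells in 96-well plates, five concentrations, linear interpolation of endpoints. At the GI50, growth is halved.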 Calls of active or inactive are those of the source. Rule as the data show it: active = GI50 up to about 1.1 µM and inactive = higher.

Tests used:
Experiment in all cases: NCI anticancer screen, dose series, 48 h
[1] = system: EKVX
[2] = system: SK-MEL-28
[3] = system: NCI-H522
[4] = system: HCT-15
[5] = system: SNB-75
[6] = system: Hs-578T
[7] = system: SK-MEL-5
[8] = system: SR
[9] = system: OVCAR-8
[10] = system: MDA-MB-231
[11] = system: NCI-H23
[12] = system: UACC-257
[13] = system: SF-295
[14] = system: SN12C
[15] = system: OVCAR-4
[16] = system: LOX IMVI
[17] = system: HT-29
[18] = system: 786-0
[19] = system: NCI-H226
[20] = system: RXF 393

| Structure (SMILES) | GI50 [1] | GI50 [2] | GI50 [3] | GI50 [4] [µM] | GI50 [5] | GI50 [6] | GI50 [7] | GI50 [8] | GI50 [9] | GI50 [10] | GI50 [11] | GI50 [12] | GI50 [13] | GI50 [14] | GI50 [15] | GI50 [16] | GI50 [17] | GI50 [18] | GI50 [19] | GI50 [20] |
| --- | --- | --- | --- | --- | --- | --- | --- | --- | --- | --- | --- | --- | --- | --- | --- | --- | --- | --- | --- | --- |
| O=C(/C=C/c1ccc(Cl)c(Cl)c1)Oc1ccc(/C=C2\CCCCC2=O)cc1 | > 100 µM (inactive) | > 100 µM (inactive) | 91.8 µM (inactive) | > 100 | > 100 µM (inactive) | > 100 µM (inactive) | > 100 µM (inactive) | > 100 µM (inactive) | > 100 µM (inactive) | > 100 µM (inactive) | > 100 µM (inactive) | > 100 µM (inactive) | > 100 µM (inactive) | > 100 µM (inactive) | > 100 µM (inactive) | > 100 µM (inactive) | > 100 µM (inactive) | > 100 µM (inactive) | – | – |
| COC(=O)/C=C1/OC(c2ccc(C)cc2C)=CC1=O | 65 µM (inactive) | 19.5 µM (inactive) | 14.1 µM (inactive) | 13.9 | 12.9 µM (inactive) | 33.4 µM (inactive) | 16.4 µM (inactive) | 3.4 µM (inactive) | 10 µM (inactive) | 14.3 µM (inactive) | 24.5 µM (inactive) | – | – | – | > 10 µM (inactive) | 6.17 µM (inactive) | 5.18 µM (inactive) | 11 µM (inactive) | 19.5 µM (inactive) | 12.1 µM (inactive) |
| Cc1cc(S(=O)(=O)n2ccnc2O)c(SCCCN(C)C)cc1Cl | > 100 µM (inactive) | > 100 µM (inactive) | > 100 µM (inactive) | > 100 | – | > 100 µM (inactive) | > 100 µM (inactive) | > 100 µM (inactive) | > 100 µM (inactive) | > 100 µM (inactive) | > 100 µM (inactive) | > 100 µM (inactive) | > 100 µM (inactive) | > 100 µM (inactive) | > 100 µM (inactive) | > 100 µM (inactive) | > 100 µM (inactive) | > 100 µM (inactive) | > 100 µM (inactive) | > 100 µM (inactive) |
| O=C(NO)c1ccc(C(=O)NO)cc1 | > 100 µM (inactive) | > 100 µM (inactive) | – | > 100 | 8.2 µM (inactive) | > 100 µM (inactive) | 81.7 µM (inactive) | 27.4 µM (inactive) | 30.8 µM (inactive) | 43.6 µM (inactive) | > 100 µM (inactive) | 56.9 µM (inactive) | > 100 µM (inactive) | > 100 µM (inactive) | > 100 µM (inactive) | > 100 µM (inactive) | 87.9 µM (inactive) | > 100 µM (inactive) | > 100 µM (inactive) | 50.4 µM (inactive) |
| COc1ccc2cc(C(=O)NCCc3ccccc3)ccc2c1OC | > 100 µM (inactive) | > 100 µM (inactive) | – | > 100 | – | 56.4 µM (inactive) | 97.3 µM (inactive) | 49.9 µM (inactive) | 79.6 µM (inactive) | 33.6 µM (inactive) | > 100 µM (inactive) | > 100 µM (inactive) | 69.2 µM (inactive) | > 100 µM (inactive) | > 100 µM (inactive) | > 100 µM (inactive) | 67.6 µM (inactive) | 39.4 µM (inactive) | 63 µM (inactive) | 30.5 µM (inactive) |
| COC(=O)/C=C1/SC(/C(=C(/[O-])OC)[n+]2ccc3ccccc3c2)=NC1=O | > 100 µM (inactive) | > 100 µM (inactive) | > 100 µM (inactive) | – | 90.2 µM (inactive) | 25.4 µM (inactive) | > 100 µM (inactive) | 63 µM (inactive) | > 100 µM (inactive) | 21.9 µM (inactive) | > 100 µM (inactive) | > 100 µM (inactive) | > 100 µM (inactive) | > 100 µM (inactive) | – | > 100 µM (inactive) | > 100 µM (inactive) | > 100 µM (inactive) | > 100 µM (inactive) | > 100 µM (inactive) |
| COc1ccc(CNc2ccn(C3OC(CO)C(O)C3O)c(=O)n2)cc1 (configuration not stated) | 73.5 µM (inactive) | > 100 µM (inactive) | 70.1 µM (inactive) | > 100 | – | > 100 µM (inactive) | 62.5 µM (inactive) | > 100 µM (inactive) | > 100 µM (inactive) | > 100 µM (inactive) | 88.7 µM (inactive) | 49.8 µM (inactive) | > 100 µM (inactive) | > 100 µM (inactive) | 37.2 µM (inactive) | > 100 µM (inactive) | 46.3 µM (inactive) | > 100 µM (inactive) | > 100 µM (inactive) | > 100 µM (inactive) |
| CC(=O)Nc1nc(C)c(S(=O)(=O)NC(=O)N2c3ccccc3CCc3ccccc32)s1 | > 100 µM (inactive) | > 100 µM (inactive) | > 100 µM (inactive) | > 100 | > 100 µM (inactive) | > 100 µM (inactive) | > 100 µM (inactive) | > 100 µM (inactive) | > 100 µM (inactive) | > 100 µM (inactive) | > 100 µM (inactive) | > 100 µM (inactive) | > 100 µM (inactive) | > 100 µM (inactive) | > 100 µM (inactive) | > 100 µM (inactive) | > 100 µM (inactive) | > 100 µM (inactive) | – | > 100 µM (inactive) |
| CC(C)(C)OC[C@H](O)CC#N | > 100 µM (inactive) | > 100 µM (inactive) | – | > 100 | > 100 µM (inactive) | > 100 µM (inactive) | > 100 µM (inactive) | > 100 µM (inactive) | > 100 µM (inactive) | > 100 µM (inactive) | > 100 µM (inactive) | > 100 µM (inactive) | > 100 µM (inactive) | > 100 µM (inactive) | > 100 µM (inactive) | > 100 µM (inactive) | > 100 µM (inactive) | > 100 µM (inactive) | > 100 µM (inactive) | > 100 µM (inactive) |
| CCOC(=O)n1c2ccccc2c(=O)n1CCO | > 100 µM (inactive) | > 100 µM (inactive) | > 100 µM (inactive) | > 100 | 28.8 µM (inactive) | > 100 µM (inactive) | > 100 µM (inactive) | > 100 µM (inactive) | > 100 µM (inactive) | > 100 µM (inactive) | > 100 µM (inactive) | > 100 µM (inactive) | > 100 µM (inactive) | > 100 µM (inactive) | > 100 µM (inactive) | – | > 100 µM (inactive) | > 100 µM (inactive) | > 100 µM (inactive) | 24.2 µM (inactive) |
| C#CCOC(=O)c1ccc(OC(C)=O)cc1 | > 100 µM (inactive) | – | > 100 µM (inactive) | > 100 | > 100 µM (inactive) | > 100 µM (inactive) | > 100 µM (inactive) | > 100 µM (inactive) | > 100 µM (inactive) | > 100 µM (inactive) | > 100 µM (inactive) | > 100 µM (inactive) | > 100 µM (inactive) | > 100 µM (inactive) | > 100 µM (inactive) | > 100 µM (inactive) | – | > 100 µM (inactive) | > 100 µM (inactive) | > 100 µM (inactive) |
| COc1ccc2c(c1)CCN=C2Cc1ccccc1CCCl | 37.2 µM (inactive) | 32.6 µM (inactive) | 19.6 µM (inactive) | 20.6 | 31.3 µM (inactive) | 62.4 µM (inactive) | 17.5 µM (inactive) | 51.2 µM (inactive) | 23.4 µM (inactive) | 15.4 µM (inactive) | 20.8 µM (inactive) | 30.7 µM (inactive) | 20.7 µM (inactive) | 24.3 µM (inactive) | 22 µM (inactive) | – | 12.2 µM (inactive) | 25.3 µM (inactive) | 26.2 µM (inactive) | 27.8 µM (inactive) |
| C/C(Sc1ccccc1)=C1/CCCN(Cc2ccccc2)C1 | 32.3 µM (inactive) | 23.8 µM (inactive) | 15.8 µM (inactive) | 14.2 | 23.6 µM (inactive) | 16.3 µM (inactive) | 14.3 µM (inactive) | 16.1 µM (inactive) | 30 µM (inactive) | 24.1 µM (inactive) | 23.9 µM (inactive) | 18.7 µM (inactive) | 17.4 µM (inactive) | – | 35.2 µM (inactive) | 14.1 µM (inactive) | 35.6 µM (inactive) | 19.5 µM (inactive) | 12.9 µM (inactive) | 16.6 µM (inactive) |
| CCOC(=O)CN1C(=O)c2c(c(C)n(-c3ccccc3)c2C)C1=O | > 100 µM (inactive) | > 100 µM (inactive) | > 100 µM (inactive) | > 100 | 82.8 µM (inactive) | > 100 µM (inactive) | > 100 µM (inactive) | > 100 µM (inactive) | > 100 µM (inactive) | > 100 µM (inactive) | > 100 µM (inactive) | > 100 µM (inactive) | > 100 µM (inactive) | > 100 µM (inactive) | > 100 µM (inactive) | – | > 100 µM (inactive) | > 100 µM (inactive) | > 100 µM (inactive) | 26 µM (inactive) |
| CCc1n[nH]c(=O)[nH]1 | > 100 µM (inactive) | – | > 100 µM (inactive) | > 100 | > 100 µM (inactive) | > 100 µM (inactive) | > 100 µM (inactive) | > 100 µM (inactive) | > 100 µM (inactive) | > 100 µM (inactive) | > 100 µM (inactive) | > 100 µM (inactive) | > 100 µM (inactive) | > 100 µM (inactive) | – | > 100 µM (inactive) | > 100 µM (inactive) | > 100 µM (inactive) | – | > 100 µM (inactive) |
